Read-outs that look alike come from different tables or passages of the source.
Assays:
CCR2 = target: T1, CCR2 (Homo sapiens, UniProt P41597); experiment: MCP-1-induced CCR2 internalization / CCR2 receptor occupancy on monocytes (flow cytometry); assay type: cell-based
T1 construct: endogenous in cells; host or cells: monocytes within PBMCs from HIV+ and HIV- subjects
T1 sequence (P41597 1-360 isoform P41597-2): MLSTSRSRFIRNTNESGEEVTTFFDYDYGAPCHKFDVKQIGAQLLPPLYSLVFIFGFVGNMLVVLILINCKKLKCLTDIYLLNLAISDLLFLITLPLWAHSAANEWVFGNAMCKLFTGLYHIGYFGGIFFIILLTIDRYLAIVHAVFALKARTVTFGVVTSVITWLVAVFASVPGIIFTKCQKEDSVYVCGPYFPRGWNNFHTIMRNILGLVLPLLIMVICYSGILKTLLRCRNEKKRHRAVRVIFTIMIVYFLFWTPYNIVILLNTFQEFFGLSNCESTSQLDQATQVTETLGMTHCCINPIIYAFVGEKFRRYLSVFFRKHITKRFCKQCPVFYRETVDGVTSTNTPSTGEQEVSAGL
Procedure: The capacity of each drug to inhibit CCR5 or CCR2 internalization was evaluated. Cell-surface expression of CCR5 and CCR2 was assessed by flow cytometry, and fluorescence values were converted into molecules of equivalent soluble fluorescence (MESF).

[1] = system: unilateral ureter occlusion (UUO) renal fibrosis; experiment: Mouse UUO model of renal fibrosis; assay type: in vivo, CD-1 mice
Procedure: Test animals were allocated to weight-matched treatment groups on the day prior to the surgical procedure (Day-1). Male CD-1 mice (N=51; age, 7-8 weeks) underwent either sham surgery or total ligation of the right ureter, i.e. UUO, via aseptic laparotomy (FIG. 12). […] Another group received the anti-transforming growth factor TGF-β1 antibody, compound 1D11 (positive control) at 3 mg/kg/day from Days-1 to 4, injected intraperitoneally once daily, and vehicle control from Days 0 to 5. […] On Day 5, animals were anaesthetized, blood and tissues were collected prior to sacrifice.
Study endpoints included: a) body and kidney weights; b) fibrosis in obstructed kidney evaluated via histological quantitative image analysis of picrosirius red staining (ten images/depth/kidney obtained and assessed in a blinded fashion using light microscopy [at 200×] to enable sampling of 60-70% of the renal cortical area) and quantified by a composite Collagen Volume Fraction (CVF [% total area imaged]) score expressed as the average positive stain across three anatomically distinct ([…] apart) tissue sections, or depths, from the obstructed kidney; c) hydroxyproline content of frozen renal cortical tissue biopsies as assessed by biochemical analyses; d) mRNA expression of profibrotic and inflammatory biomarkers (including MCP-1, Collagen 1a1, Collagen 3a1, TGF-β1, Fibronectin-1, α-smooth muscle actin (α-SMA) and connective tissue growth factor-1 (CTGF-1); assessed via Luminex® (Life Technologies™, Carlsbad, Calif., USA) assay with relative expression normalised to HPRT (hypoxanthine phosphoribosyltransferase).
Data are expressed as mean±standard error of mean (SEM). Statistical analyses were performed using GraphPad Prism® (GraphPad Software, Inc., San Diego, Calif., USA). Treatment differences between sham-surgery+vehiclecontrol and UUO+vehicle-control groups, and between UUO+vehicle-control and UUO+compound-1D11 (positive control) groups, were analysed by unpaired t-Test. Treatment differences between UUO+vehicle-control and CVC-dose groups were analysed by one-way ANOVA (analysis of variance) with Dunnett's test (post-hoc).

[2] = system: CC14-induced acute liver injury; experiment: CC14-induced acute liver injury in mice; assay type: in vivo, C57BL/6J mice; conditions: CVC 100 mg/kg oral, 36h after CC14; vehicle 5.49%±0.49
Procedure: Liver injury and immune cell phenotypes were analyzed. For mechanistic studies, monocyte-derived macrophage subsets and resident macrophages (Kupffer cells) were sorted by FACS from injured livers and subjected to array-based Nanostring gene expression analysis.

[3] = system: APAP-induced acute liver injury; experiment: Acetaminophen (APAP)-induced acute liver injury in mice; assay type: in vivo, C57BL/6J mice
Procedure: Methods: […] […] Liver injury and immune cell phenotypes were analyzed. For mechanistic studies, monocyte-derived macrophage subsets and resident macrophages (Kupffer cells) were sorted by FACS from injured livers and subjected to array-based Nanostring gene expression analysis. […] The human counterparts of both agents are currently tested in phase II trials for different indications (diabetic nephropathy or NASH, respectively).

HIV-1 = experiment: Study 201: pharmacokinetic/pharmacodynamic Emax model; assay type: in vivo, human; conditions: for Emax: read-out: Percent of the maximum inhibitory effect at average Css (Emax model)
Text: Drug response was characterized using the following maximum effect (Emax) model:
where E is effect, E0 is the baseline effect (fixed to 0), Imax is the maximum inhibition, C denotes the PK variable (AUC0-24, Cmax, or steady-state concentration [Css]), IC50 is the value of the PK variable which corresponds to 50% of the maximum inhibition and γ is the shape parameter which describes the degree of sigmoidicity.

CCR1 = CCR1 (Homo sapiens, UniProt P32246); experiment: Inhibition of ligand binding to CCR1
Sequence of CCR1 (P32246 whole entry): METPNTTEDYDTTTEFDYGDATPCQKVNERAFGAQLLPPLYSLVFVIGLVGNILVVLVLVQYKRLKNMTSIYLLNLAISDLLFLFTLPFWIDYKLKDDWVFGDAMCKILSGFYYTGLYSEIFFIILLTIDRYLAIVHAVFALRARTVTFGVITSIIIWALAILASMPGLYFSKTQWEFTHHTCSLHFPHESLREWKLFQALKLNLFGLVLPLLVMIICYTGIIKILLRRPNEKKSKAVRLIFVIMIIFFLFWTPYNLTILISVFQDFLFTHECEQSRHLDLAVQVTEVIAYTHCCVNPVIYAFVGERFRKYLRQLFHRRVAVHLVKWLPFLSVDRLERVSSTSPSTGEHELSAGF

Compound: CCCCOCCOc1ccc(-c2ccc3c(c2)/C=C(/C(=O)Nc2ccc([S@@+]([O-])Cc4cncn4CCC)cc2)CCCN3CC(C)C)cc1 [CVC, (S)-8-[4-(2-Butoxyethoxy)phenyl]-1-isobutyl-N-(4-{[(1-propyl-1H-imidazol-5-yl)methyl]sulfinyl}phenyl)-1,2,3,4-tetrahydro-1-benzazocine-5-carboxamide]
- Concentration at which saturation of monocyte CCR2 was reached (CCR2): 6 nM
- Concentration required to reach >80% CCR2 receptor occupancy (average) (CCR2): 1.8 nM
- receptor occupancy at 0.006 µM (CCR2; at 6 nM): ~98%
- CCR2 cell-surface expression (CCR2; in the absence of MCP-1): induced CCR2 internalization and decreased cell-surface expression on monocytes
- Effect on body weight ([1]; CVC 7 mg/kg/day, Day 5): no effect on body weight
- Outcome of the 100 mg/kg/day group ([1]; CVC 100 mg/kg/day, N=9, after UUO surgery): terminated early due to moribundity
- Effect on UUO-induced increase in obstructed kidney hydroxyproline content ([1]; CVC 7 and 20 mg/kg/day): Neither dose of CVC tested affected UUO-induced increases
- Effect on UUO-induced Collagen 1a1, Collagen 3a1, TGF-β1 and Fibronectin-1 mRNA expression ([1]; obstructed kidney cortex): did not reach statistical significance
- Effect on UUO-induced MCP-1, α-SMA and CTGF-1 mRNA expression ([1]; obstructed kidney cortex): did not have significant effects
- Ly6C+ monocyte-derived macrophages in liver (% of liver leukocytes) [2]: 0.95%±0.14
- Reduction of Ly6C+ monocyte-derived macrophages in liver ([3]; CC14 and APAP models): 83-84%
- Pro-inflammatory Ly6C+ monocytes in blood ([3]; CC14 and APAP models, p<0.01): significantly reduced
- Reduction in ALT ([3]; CVC 100 mg/kg oral): 75%
- Reduction in necrotic area fraction ([3]; CVC 100 mg/kg oral): 61%
- Ly6C+ monocyte-derived macrophages in liver (% of liver leukocytes) ([3]; CVC 100 mg/kg oral, 12h after APAP, vehicle 6.01%±0.66): 0.95%±0.11
- Necrotic area fraction ([3]; CVC 100 mg/kg oral, vehicle 27.9%±4.05): 10.9%±3.50
- Monocyte accumulation in APAP-injured livers ([3]; WT mice): significantly reducing monocyte accumulation
- Protection from liver damage (ALT levels) ([3]; WT mice, p<0.05 for mNOX, p<0.01 for CVC): significant protection from liver damage
- Emax (HIV-1; Human immunodeficiency virus 1, 25 mg): 54.9%
- Emax (HIV-1; Human immunodeficiency virus 1, 50 mg): 79.8%
- Emax (HIV-1; Human immunodeficiency virus 1, 75 mg): 85.9%
- Emax (HIV-1; Human immunodeficiency virus 1, 150 mg): 95.9%
- Emax in the PK/PD model (HIV-1 RNA) (HIV-1; in vivo): −1.43 log10 copies/mL
- Inhibition of ligand binding to CCR1 (CCR1): did not inhibit
